Laboratory results reported in patent US9499553B2 (CHUGAI SEIYAKU KABUSHIKI KAISHA, priority 2013, dated 2016).
Where two headings read alike, the source gives them in different places.

Molecular target: T1, human NaPi-IIb (Homo sapiens, UniProt O95436)
T1 construct: expressed in transfected cells
T1 sequence (O95436 1-690): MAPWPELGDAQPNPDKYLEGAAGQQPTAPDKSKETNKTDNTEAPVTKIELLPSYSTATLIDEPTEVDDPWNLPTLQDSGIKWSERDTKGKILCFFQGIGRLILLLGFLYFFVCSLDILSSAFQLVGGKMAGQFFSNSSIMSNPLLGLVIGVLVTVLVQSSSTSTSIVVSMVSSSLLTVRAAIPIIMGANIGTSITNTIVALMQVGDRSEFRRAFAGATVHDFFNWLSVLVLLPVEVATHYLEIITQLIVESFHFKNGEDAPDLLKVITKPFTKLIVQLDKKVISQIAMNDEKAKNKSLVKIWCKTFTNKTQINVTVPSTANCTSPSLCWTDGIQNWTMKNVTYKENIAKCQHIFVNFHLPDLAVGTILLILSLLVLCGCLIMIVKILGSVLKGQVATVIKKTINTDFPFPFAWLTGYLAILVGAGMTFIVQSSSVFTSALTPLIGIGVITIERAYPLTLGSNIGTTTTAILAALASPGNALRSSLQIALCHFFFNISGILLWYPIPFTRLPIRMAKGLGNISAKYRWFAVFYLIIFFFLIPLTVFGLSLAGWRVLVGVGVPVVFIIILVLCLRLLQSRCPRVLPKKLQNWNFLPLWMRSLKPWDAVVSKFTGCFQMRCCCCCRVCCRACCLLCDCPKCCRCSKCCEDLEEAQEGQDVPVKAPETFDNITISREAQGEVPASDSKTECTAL
Experiment: Inhibitory effect on 33PO4 uptake into human NaPi-IIb-expressing CHO cells
Type: cell-based
Procedure, shortened: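 Stable human NaPi-IIb CHO line (G418-selected), plated and cultured overnight; ³³PO4 added in buffer A and uptake run at room temperature. Cells washed with ice-cold buffer A, then uptake counted by liquid scintillation.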

[1] = read-out: IC50 against 33PO4 uptake into human NaPi-IIb-expressing cells

IC50 (read-out: IC50) [µM]	IC50 [1] [µM]	SMILES
9	–	COC(=O)COc1ccc(CN2C(=O)C(C(=O)Nc3ccc(C(F)(F)F)cc3-c3ccc(C(F)(F)F)nc3)=C(O)[C@@]3(C)CCCN23)c(F)c1F [Example 150]
8.2	–	C[C@]12CCCN1N(Cc1ccccc1C#N)C(=O)C(C(=O)Nc1ccc(C(F)(F)F)cc1-c1cc(C(F)(F)F)ncn1)=C2O [Example 178]
17.6	–	COc1cccc(-c2cc(C(F)(F)F)ccc2NC(=O)C2=C(O)[C@@]3(C)CCCN3N(Cc3ccc(C#CCOCCOCCOCCO)c(F)c3F)C2=O)c1OC [Example 136]
5.7	–	C[C@]12CCCN1N(Cc1cc(Cl)ccc1F)C(=O)C(C(=O)Nc1ccc(C(F)(F)F)cc1-c1cc(C(F)(F)F)ncn1)=C2O [Example 211]
2.5	–	C[C@]12CCCN1N(Cc1c(F)cc(OCCCCCCOC[C@@H](O)CO)cc1F)C(=O)C(C(=O)Nc1ccc(C(F)(F)F)cc1-c1ccc(C(F)(F)F)nc1)=C2O [Example 154]
6.7	–	C[C@]12CCCN1N(Cc1c(F)cc(C#CCCCCOC[C@H](O)CO)cc1F)C(=O)C(C(=O)Nc1ccc(C(F)(F)F)cc1-c1ccc(C(F)(F)F)nc1)=C2O [Example 143]
12	–	C[C@]12CCCN1N(Cc1ccc(C#CCOCCCCO)c(F)c1F)C(=O)C(C(=O)Nc1ccc(C(F)(F)F)cc1-c1ccc(C(F)(F)F)nc1)=C2O [Example 128]
10.8	–	CSc1ncc(-c2cc(C(F)(F)F)ccc2NC(=O)C2=C(O)[C@@]3(C)CCCN3N(Cc3ccc(OCCN4CCOCC4)c(F)c3F)C2=O)cn1 [Example 104]
12.3	–	COc1cccc(-c2cc(C(F)(F)F)ccc2NC(=O)C2=C(O)[C@@]3(C)CCCN3N(Cc3ccc(C#CCCCCO)c(F)c3F)C2=O)c1OC [Example 135]
17.5	–	COc1cncc(-c2cc(C(F)(F)F)ccc2NC(=O)C2=C(O)[C@@]3(C)CCCN3N(Cc3cccc(F)c3F)C2=O)c1 [Example 81]
6.5	–	C[C@]12CCCN1N(Cc1cccc(F)c1F)C(=O)C(C(=O)Nc1ccc(Br)cc1-c1cc(C(F)(F)F)ncn1)=C2O [Example 64]
5.7	–	C[C@]12CCCN1N(Cc1ccccc1Cl)C(=O)C(C(=O)Nc1ccc(C(F)(F)F)cc1-c1cc(C(F)(F)F)ncn1)=C2O [Example 180]
10.6	–	C[C@]12CCCN1N(Cc1cccc(F)c1F)C(=O)C(C(=O)Nc1ccc(C(F)(F)F)cc1-c1cnc3ccccc3c1)=C2O [Example 83]
2.3	–	C[C@]12CCCN1N(Cc1cccc(F)c1F)C(=O)C(C(=O)Nc1ccc(C(F)(F)F)cc1-c1cnc(Br)cn1)=C2O [Example 73]

Further lines, the molecule ahead of its results:

SMILES	IC50 (read-out: IC50) [µM]	IC50 [1] [µM]
CN1N(Cc2ccc(OCC(=O)N3CCOCC3)c(F)c2F)C(=O)C(C(=O)Nc2ccc(C(F)(F)F)cc2-c2cc(C(F)(F)F)ncn2)=C(O)C12CCC2 [Example 336, 8-[[2,3-Difluoro-4-(2-morpholin-2-oxo-ethoxy)phenyl]methyl]-5-hydroxy-9-methyl-7-oxo-N-[4-(trifluoromethyl)-2-[6-(trifluoromethyl)pyrimidin-4-yl]phenyl]-8,9-diazaspiro[3.5]non-5-ene-6-carboxamide]	19.7	–
CN1N(Cc2cccc(F)c2F)C(=O)C(C(=O)Nc2ccc(C(F)(F)F)cc2-c2cncc(C(F)(F)F)c2)=C(O)C1(C)C [Example 305]	5.9	–
CN1N(Cc2ccc(OCCN[C@@H](CC(=O)O)C(=O)O)c(F)c2F)C(=O)C(C(=O)Nc2ccc(C(F)(F)F)cc2-c2cc(C(F)(F)F)ncn2)=C(O)C12CCCC2 [Example 381, (2S)-2-[2-[2,3-Difluoro-4-[[10-hydroxy-6-methyl-8-oxo-9-[[4-(trifluoromethyl)-2-[6-(trifluoromethyl)pyrimidin-4-yl]phenyl]carbamoyl]-6,7-diazaspiro[4.5]dec-9-en-7-yl]methyl]phenoxy]ethylamino]butanedioate]	–	22
CCN(CCN(C)CCOC)c1ccc(CN2C(=O)C(C(=O)Nc3ccc(C(F)(F)F)cc3-c3cc(C(F)(F)F)ncn3)=C(O)C3(CCCC3)N2C)c(F)c1F [Example 443]	–	8.9
CN1N(Cc2ccc(OCCCCOC[C@H](O)CO)c(F)c2F)C(=O)C(C(=O)Nc2ccc(C(F)(F)F)cc2-c2ccc(C(F)(F)F)nc2)=C(O)C12CCCC2 [Example 387]	–	10.7
CN1N(Cc2ccc(OCCCCCOC[C@H](O)CO)c(F)c2F)C(=O)C(C(=O)Nc2ccc(C(F)(F)F)cc2-c2cc(C(F)(F)F)ncn2)=C(O)C12CCCC2 [Example 394]	–	6.7
C[C@]12CCCN1N(Cc1ccccc1Cl)C(=O)C(C(=O)Nc1cc(F)c(Br)c(F)c1)=C2O [Example 219]	4.2	–
CN1N(Cc2ccc(OCCCC(=O)O)c(F)c2F)C(=O)C(C(=O)Nc2ccc(C(F)(F)F)cc2-c2cc(C(F)(F)F)ncn2)=C(O)C12CCCC2 [Example 332, 4-[2,3-Difluoro-4-[[10-hydroxy-6-methyl-8-oxo-9-[[4-(trifluoromethyl)-2-[6-(trifluoromethyl)pyrimidin-4-yl]phenyl]carbamoyl]-6,7-diazaspiro[4.5]dec-9-en-7-yl]methyl]phenoxy]butanoate]	23.9	–
CN1N(Cc2ccc(OCCN3C4CCC3COC4)c(F)c2F)C(=O)C(C(=O)Nc2ccc(C(F)(F)F)cc2-c2cc(C(F)(F)F)ncn2)=C(O)C12CCC2 [Example 340]	10	–
CN1N(Cc2ccc(OCCN3CCOCC3(C)C)c(F)c2F)C(=O)C(C(=O)Nc2ccc(C(F)(F)F)cc2-c2cc(C(F)(F)F)ncn2)=C(O)C12CCCC2 [Example 371]	–	8.5
Cc1c(-c2cc(C(F)(F)F)ccc2NC(=O)C2=C(O)C3(CCCC3)N(C)N(Cc3ccc(OCCN4CCOCC4)c(F)c3F)C2=O)ncnc1C(F)(F)F [Example 290]	7	–
COC[C@@H]1CCCN1CCOc1ccc(CN2C(=O)C(C(=O)Nc3ccc(C(F)(F)F)cc3-c3cc(C(F)(F)F)ncn3)=C(O)C3(CCCC3)N2C)c(F)c1F [Example 375]	–	17.8
C[C@]12CCCN1N(Cc1cccc(OC(F)(F)F)c1)C(=O)C(C(=O)Nc1ccc(C(F)(F)F)cc1-c1cc(C(F)(F)F)ncn1)=C2O [Example 189]	5.5	–
C[C@]12CCCN1N(Cc1cccc(F)c1F)C(=O)C(C(=O)Nc1cc(F)c(Br)c(F)c1)=C2O [Example 29]	2	–
CN1N(Cc2cccc(F)c2F)C(=O)C(C(=O)Nc2ccc(C(F)(F)F)nc2-c2ccc(C(F)(F)F)nc2)=C(O)C1(C)C [Example 304]	3.5	–
COC(=O)[C@@H]1CCCN1CCOc1ccc(CN2C(=O)C(C(=O)Nc3ccc(C(F)(F)F)cc3-c3cc(C(F)(F)F)ncn3)=C(O)C3(CCC3)N2C)c(F)c1F [Example 355]	–	15
CC(C)[C@@H]1C(O)=C(C(=O)Nc2ccc(C(F)(F)F)cc2-c2cc(C(F)(F)F)ncn2)C(=O)N(Cc2cccc(F)c2F)N1C [Example 249]	9.8	–
COCCN(C)CCOCCOc1ccc(CN2C(=O)C(C(=O)Nc3ccc(C(F)(F)F)cc3-c3cc(C(F)(F)F)ncn3)=C(O)C3(CCCC3)N2C)c(F)c1F [Example 429, 7-[[2,3-Difluoro-4-[2-[2-[2-methoxyethyl(methyl)amino]ethoxy]ethoxy]phenyl]methyl]-10-hydroxy-6-methyl-8-oxo-N-[4-(trifluoromethyl)-2-[6-(trifluoromethyl)pyrimidin-4-yl]phenyl]-6,7-diazaspiro[4.5]dec-9-ene-9-carboxamide]	–	7.7
CN1[C@@H](C(C)(C)C)C(O)=C(C(=O)Nc2ccc(C(F)(F)F)cc2-c2ccc(C(F)(F)F)nc2)C(=O)N1Cc1cccc(F)c1F [Example 238]	8.5	–
CN1N(Cc2ccc(OCCOCCOCCOCCNC(=O)[C@@H](O)[C@H](O)[C@@H](O)[C@@H](O)CO)c(F)c2F)C(=O)C(C(=O)Nc2ccc(C(F)(F)F)cc2-c2cc(C(F)(F)F)ncn2)=C(O)C12CCCC2 [Example 428, 7-[[2,3-Difluoro-4-[2-[2-[2-[2-[[(2S,3R,4S,5S)-2,3,4,5,6-pentahydroxyhexanoyl]amino]ethoxy]ethoxy]ethoxy]ethoxy]phenyl]methyl]-10-hydroxy-6-methyl-8-oxo-N-[4-(trifluoromethyl)-2-[6-(trifluoromethyl)pyrimidin-4-yl]phenyl]-6,7-diazaspiro[4.5]dec-9-ene-9-carboxamide]	–	23
CN1N(Cc2ccc(OCCN3CCOCC3)c(F)c2F)C(=O)C(C(=O)Nc2ccc(C(F)(F)F)cc2-c2ncnc(C(F)(F)F)c2Cl)=C(O)C12CCC2 [Example 284]	7.8	–
COC(=O)CN(C)CCOc1ccc(CN2C(=O)C(C(=O)Nc3ccc(C(F)(F)F)cc3-c3cc(C(F)(F)F)ncn3)=C(O)C3(CCCC3)N2C)c(F)c1F [Example 368]	–	14.7
CN1N(Cc2ccc(OCCN3CCN(CCCO)CC3)c(F)c2F)C(=O)C(C(=O)Nc2ccc(C(F)(F)F)cc2-c2cc(C(F)(F)F)ncn2)=C(O)C12CCC2 [Example 362]	–	18.8
CC1(C)CC[C@]2(C)C(O)=C(C(=O)Nc3cc(C(F)(F)F)ccc3-c3ccc(C(F)(F)F)nc3)C(=O)N(Cc3cccc(F)c3F)N12 [Example 63]	8.7	–
COCC(C)(C)N(C)CCOc1ccc(CN2C(=O)C(C(=O)Nc3ccc(C(F)(F)F)cc3-c3cc(C(F)(F)F)ncn3)=C(O)C3(CCCC3)N2C)c(F)c1F [Example 372]	–	16.3
